3 compounds from US11076594B2, “Pyrazolone compound or salt thereof, preparation method therefor, herbicide composition and use thereof” (QINGDAO KINGAGROOT CHEMICAL COMPOUNDS CO., LTD., priority 2015, dated 2021) can be followed below.

Holding throughout (assay type): in vivo
The subject of one series is crab grass. Put plainly: weed control effect in post-emergence stage (Table 1). More on the design: key: Level 10: completely dead; Level 9: above 95% growth control rate; Level 8: above 90% growth control rate; Level 7: above 80% growth control rate; Level 6: above 70% growth control rate; Level 5: above 60% growth control rate; Level 4: above 50% growth control rate; Level 3: above 20% growth control rate; Level 2: 5%-20% growth control rate; Level 1: below 5% growth control rate. To be noted: post-emergence spray at 4-5 leaf stage, 250 g/ha active ingredient with 450 kg/ha water, rated after 3 weeks in greenhouse. In short, it runs like this: (§1)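 Greenhouse pot test; foliar spray at 4-5 leaf stage; acetone + Tween 80 + water formulation; 3 wk post-treatment fresh-weight control rate.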

The next series deals with foxtail. The series is described as above. Also noted: key: Level 10: completely dead; Level 9: above 95% growth control rate; Level 8: above 90% growth control rate; Level 7: above 80% growth control rate; Level 6: above 70% growth control rate; Level 5: above 60% growth control rate; Level 4: above 50% growth control rate; Level 3: above 20% growth control rate; Level 2: 5%-20% growth control rate; Level 1: below 5% growth control rate. To be noted: post-emergence spray at 4-5 leaf stage, 250 g/ha active ingredient with 450 kg/ha water, rated after 3 weeks in greenhouse. In outline:
as §1

Series [1] relates to echinochloa. The description is as above. Also noted: key: Level 10: completely dead; Level 9: above 95% growth control rate; Level 8: above 90% growth control rate; Level 7: above 80% growth control rate; Level 6: above 70% growth control rate; Level 5: above 60% growth control rate; Level 4: above 50% growth control rate; Level 3: above 20% growth control rate; Level 2: 5%-20% growth control rate; Level 1: below 5% growth control rate. The following applies: post-emergence spray at 4-5 leaf stage, 250 g/ha active ingredient with 450 kg/ha water, rated after 3 weeks in greenhouse. In short, it runs like this:
as §1

The next series has as its system bidens bipinnata. Described as above. More on the design: key: Level 10: completely dead; Level 9: above 95% growth control rate; Level 8: above 90% growth control rate; Level 7: above 80% growth control rate; Level 6: above 70% growth control rate; Level 5: above 60% growth control rate; Level 4: above 50% growth control rate; Level 3: above 20% growth control rate; Level 2: 5%-20% growth control rate; Level 1: below 5% growth control rate. To be noted: post-emergence spray at 4-5 leaf stage, 250 g/ha active ingredient with 450 kg/ha water, rated after 3 weeks in greenhouse. In outline: as §1

Another series relates to Indian mallow. The description is as above. To be noted: post-emergence spray at 4-5 leaf stage, 250 g/ha active ingredient with 450 kg/ha water, rated after 3 weeks in greenhouse. Also noted: key: Level 10: completely dead; Level 9: above 95% growth control rate; Level 8: above 90% growth control rate; Level 7: above 80% growth control rate; Level 6: above 70% growth control rate; Level 5: above 60% growth control rate; Level 4: above 50% growth control rate; Level 3: above 20% growth control rate; Level 2: 5%-20% growth control rate; Level 1: below 5% growth control rate. In outline: as §1

For another series, the system named is rorippa indica. The series is described as above. The following applies: post-emergence spray at 4-5 leaf stage, 250 g/ha active ingredient with 450 kg/ha water, rated after 3 weeks in greenhouse. More on the design: key: Level 10: completely dead; Level 9: above 95% growth control rate; Level 8: above 90% growth control rate; Level 7: above 80% growth control rate; Level 6: above 70% growth control rate; Level 5: above 60% growth control rate; Level 4: above 50% growth control rate; Level 3: above 20% growth control rate; Level 2: 5%-20% growth control rate; Level 1: below 5% growth control rate. In outline:
as §1

In the next series the test system is wheat. Put plainly: post-emergence stage experiment, crop (Table 1). The following applies: post-emergence spray at 4-5 leaf stage, 250 g/ha active ingredient with 450 kg/ha water, rated after 3 weeks in greenhouse. In short, it runs like this:
as §1

In another series the test system is corn. Kind of series: post-emergence stage experiment, crop (Table 1). The following applies: post-emergence spray at 4-5 leaf stage, 250 g/ha active ingredient with 450 kg/ha water, rated after 3 weeks in greenhouse. In outline: as §1
The subject of another series is rice (japonica rice). Kind of series: transplanted rice safety evaluation. To be noted: 125 g/ha ai; treated 5 days after transplantation; 21 days after treatment. As to the method:
The activity level standard of harmful plant destruction (i.e. growth control rate) is as follows: In addition, the rice field soil that loaded into the 1/1,000,000 ha pot was leveled to keep water storage at 3-4 cm depth. The 3 leaf stage rice (japonica rice) was transplanted at 3 cm of transplanting depth the next day. The compound of the present invention was treated by the same way after 5 days of transplantation. The fertility condition of echinochloa, scirpus juncoides, bidens tripartite and sagittaria trifolia 14 days after the treatment of the compound of the invention and the fertility condition of rice 21 days after the treatment of the compound of the invention respectively with the naked eye.

In a further series the test system is rice. Put plainly: post-emergence stage experiment, crop (Table 1). To be noted: post-emergence spray at 4-5 leaf stage, 250 g/ha active ingredient with 450 kg/ha water, rated after 3 weeks in greenhouse. In short, it runs like this: as §1
For the next series, the system named is sagittaria trifolia. Put plainly: weed control effect evaluation in rice field. More on the design: key: Level 10: completely dead; Level 9: above 95% growth control rate; Level 8: above 90% growth control rate; Level 7: above 80% growth control rate; Level 6: above 70% growth control rate; Level 5: above 60% growth control rate; Level 4: above 50% growth control rate; Level 3: above 20% growth control rate; Level 2: 5%-20% growth control rate; Level 1: below 5% growth control rate. To be noted: 125 g/ha ai; rice field pot; 14 days after treatment; resistant to pyrazosulfuron-ethyl. An excerpt: (§2) The activity level standard of harmful plant destruction (i.e. growth control rate) is as follows: Rice field soil was loaded into a 1/1,000,000 ha pot. The seeds of echinochloa, scirpus juncoides, bidens tripartite and sagittaria trifolia were sowed and gently covered with soil, then left to stand still in greenhouse in the state of 0.5-1 cm of water storage. The tuber of sagittaria trifolia was planted in the next day or 2 days later. It was kept at 3-4 cm of water storage thereafter. The weeds were treated by dripping the WP or SC water diluents prepared according to the common preparation method of the compounds of the present invention with pipette homogeneously to achieve specified effective amount when echinochloa, scirpus juncoides and bidens tripartite reached 0.5 leaf stage and sagittaria trifolia reached the time point of primary leaf stage. The fertility condition of echinochloa, scirpus juncoides, bidens tripartite and sagittaria trifolia 14 days after the treatment of the compound of the invention and the fertility condition of rice 21 days after the treatment of the compound of the invention respectively with the naked eye.

Another series has as its system bidens tripartite. Kind of series: weed control effect evaluation in rice field. Also noted: key: Level 10: completely dead; Level 9: above 95% growth control rate; Level 8: above 90% growth control rate; Level 7: above 80% growth control rate; Level 6: above 70% growth control rate; Level 5: above 60% growth control rate; Level 4: above 50% growth control rate; Level 3: above 20% growth control rate; Level 2: 5%-20% growth control rate; Level 1: below 5% growth control rate. To be noted: 125 g/ha ai; rice field pot; 14 days after treatment; resistant to pyrazosulfuron-ethyl.
Description: as §2

Series [2] relates to echinochloa. Put plainly: weed control effect evaluation in rice field. The following applies: 125 g/ha ai; rice field pot; 14 days after treatment; resistant to pyrazosulfuron-ethyl. Also noted: key: Level 10: completely dead; Level 9: above 95% growth control rate; Level 8: above 90% growth control rate; Level 7: above 80% growth control rate; Level 6: above 70% growth control rate; Level 5: above 60% growth control rate; Level 4: above 50% growth control rate; Level 3: above 20% growth control rate; Level 2: 5%-20% growth control rate; Level 1: below 5% growth control rate.
Description: as §2

Another series has as its system scirpus juncoides. Kind of series: weed control effect evaluation in rice field. Also noted: key: Level 10: completely dead; Level 9: above 95% growth control rate; Level 8: above 90% growth control rate; Level 7: above 80% growth control rate; Level 6: above 70% growth control rate; Level 5: above 60% growth control rate; Level 4: above 50% growth control rate; Level 3: above 20% growth control rate; Level 2: 5%-20% growth control rate; Level 1: below 5% growth control rate. The following applies: 125 g/ha ai; rice field pot; 14 days after treatment; resistant to pyrazosulfuron-ethyl.
Description: as §2

For `Cn1nc(C2CC2)c(C(=O)c2ccc(C(F)(F)F)c(N3CCCC3=O)c2Cl)c1O` [Compound 025], the “weed control effect, Crab grass (level)” value in the series on crab grass is reported as 6 (Level 6: above 70% growth control rate). In the series with foxtail, the “weed control effect, Green foxtail (level)” value came out at 10. Further, the “weed control effect, Echinochloa (level)” value in the series on echinochloa [1] is 6 (Level 6: above 70% growth control rate). In the series with bidens bipinnata, the “weed control effect, Bidens bipinnata (level)” value is given as 8 (Level 8: above 90% growth control rate). For the same compound, in the series with Indian mallow, the “weed control effect, Indian mallow (level)” value was found to be 10. The “weed control effect, Rorippa indica (level)” value in the series with rorippa indica amounted to 10. In addition, the “effect on crop, Wheat (level)” value with wheat is on record as 3 (Level 3: above 20% growth control rate). The “effect on crop, Corn (level)” value with corn is 4 (Level 4: above 50% growth control rate). Besides, the “Rice (activity level, transplanted rice safety)” value in the series on rice (japonica rice) turned out to be 0. For the same compound, in the series on rice, the “effect on crop, Rice (level)” value was 6 (Level 6: above 70% growth control rate). In addition, the “Sagittaria trifolia weed control effect (activity level)” value (from here on “Sagittaria trifolia weed control effect”) with sagittaria trifolia is recorded as 10. The “Bidens tripartite weed control effect (activity level)” value (from here on “Bidens tripartite weed control effect”) in the series with bidens tripartite is listed as 8 (Level 8: above 90% growth control rate). Besides, the “Echinochloa weed control effect (activity level)” value (“Echinochloa weed control effect” below) with echinochloa [2] is 9 (Level 9: above 95% growth control rate). The “Scirpus juncoides weed control effect (activity level)” value (“Scirpus juncoides weed control effect” for short) in the series with scirpus juncoides turned out to be 10.

On to `CCn1nc(C)c(C(=O)c2ccc(C(F)(F)F)c(-n3cccn3)c2Cl)c1O` [Compound 128], for which the “weed control effect, Crab grass (level)” value in the series on crab grass is 1 (Level 1: below 5% growth control rate). Further, in the series with foxtail, the “weed control effect, Green foxtail (level)” value came to 10. The “weed control effect, Echinochloa (level)” value in the series on echinochloa [1] turned out to be 10. Further, in the series on bidens bipinnata, the “weed control effect, Bidens bipinnata (level)” value was 6 (Level 6: above 70% growth control rate). Moreover, the “weed control effect, Indian mallow (level)” value in the series with Indian mallow is 3 (Level 3: above 20% growth control rate). The “weed control effect, Rorippa indica (level)” value in the series with rorippa indica was 7 (Level 7: above 80% growth control rate). For the same compound, the “effect on crop, Wheat (level)” value in the series on wheat was 0. The “effect on crop, Corn (level)” value in the series on corn is 0. In addition, the “Rice (activity level, transplanted rice safety)” value in the series on rice (japonica rice) was 1 (Level 1: below 5% growth control rate). In addition, in the series with rice, the “effect on crop, Rice (level)” value is reported as 5 (Level 5: above 60% growth control rate). For the same compound, the “Sagittaria trifolia weed control effect” value with sagittaria trifolia was 8 (Level 8: above 90% growth control rate). For the same compound, in the series on bidens tripartite, the “Bidens tripartite weed control effect” value was 6 (Level 6: above 70% growth control rate). Besides, the “Echinochloa weed control effect” value in the series with echinochloa [2] was 10. Further, in the series with scirpus juncoides, the “Scirpus juncoides weed control effect” value was 10.

With `CCOc1c(C(=O)Oc2c(C(=O)c3ccc(C(F)(F)F)c(-n4cccn4)c3Cl)cnn2C)cnn1C` [Compound 065], the “weed control effect, Crab grass (level)” value in the series on crab grass is listed as 8 (Level 8: above 90% growth control rate). Moreover, the “weed control effect, Green foxtail (level)” value with foxtail amounted to 10. The “weed control effect, Echinochloa (level)” value with echinochloa [1] is on record as 7 (Level 7: above 80% growth control rate). The “weed control effect, Bidens bipinnata (level)” value in the series with bidens bipinnata is 7 (Level 7: above 80% growth control rate). The “weed control effect, Indian mallow (level)” value in the series with Indian mallow is recorded as 9 (Level 9: above 95% growth control rate). The “weed control effect, Rorippa indica (level)” value in the series on rorippa indica is 9 (Level 9: above 95% growth control rate). Moreover, in the series with wheat, the “effect on crop, Wheat (level)” value is 3 (Level 3: above 20% growth control rate). In addition, the “effect on crop, Corn (level)” value with corn was 9 (Level 9: above 95% growth control rate). For the same compound, the “Rice (activity level, transplanted rice safety)” value in the series on rice (japonica rice) is reported as 3 (Level 3: above 20% growth control rate). For the same compound, the “effect on crop, Rice (level)” value in the series on rice was 3 (Level 3: above 20% growth control rate). The “Sagittaria trifolia weed control effect” value in the series on sagittaria trifolia is listed as 9 (Level 9: above 95% growth control rate). Moreover, in the series with bidens tripartite, the “Bidens tripartite weed control effect” value is listed as 8 (Level 8: above 90% growth control rate). Further, the “Echinochloa weed control effect” value in the series with echinochloa [2] is listed as 9 (Level 9: above 95% growth control rate). Also, in the series with scirpus juncoides, the “Scirpus juncoides weed control effect” value was 9 (Level 9: above 95% growth control rate).
